{
  "source": "paper PMC8234864",
  "about": "“Early Effects of the Soluble Amyloid β25-35 Peptide in Rat Cortical Neurons: Modulation of Signal Transduction Mediated by Adenosine and Group I Metabotropic Glutamate Receptors” (International Journal of Molecular Sciences, 2021)",
  "key": {"rat cortical neurons": {"test_system": "rat cortical neurons", "assay": "MTT reduction cell viability assay after Aβ exposure", "type": "cell-based", "details": "for decrease in cell viability: MTT reduction, vs control", "experimental": "Aβ25-35 and Aβ1-42 were water-soluble peptides, however, while Aβ25-35, the functional domain of Aβ required for both neurotrophic and neurotoxic effects, was directly added to neuronal cultures after its solubilisation, Aβ1-42 was solved in water and maintained for 24 h at 37 °C before its addition to promote its aggregation. To test the effect of mGluR ligands on cell death induced by Aβ in neuronal cultures, these drugs were added 30 min before the addition of Aβ25-35 and maintained during Aβ exposure. Unless otherwise indicated, all chemicals were dissolved in water.\nCell viability was determined on 96-well plates using an in vitro toxicology assay kit based on a mitochondrial-dependent reaction that transforms 3-[4,5-dimetylthiazol-2-yl]-2,5-diphenyltetrazolium bromide (MTT) into formazan crystals. Briefly, at the end of treatments, cells were incubated in culture medium with MTT solution (5 mg/mL) at 37 °C for 3 h. After incubation, MTT solubilization solution (10% Triton X-100 plus 0.1 M HCl in isopropanol anhydrous) was added into the wells to dissolve formazan crystals and the absorbance of each well was measured at 570 nm and 690 nm, according to the manufacturer’s instructions."}, "[1]": {"test_system": "Caspase 3 (Casp3) gene expression", "assay": "Caspase 3 gene expression by real-time RT-PCR", "type": "cell-based, rat", "details": "25 µM", "experimental": "Total RNA was extracted using an ABI 6100 Nucleic Acid PrepStation according to the manufacturer’s protocol (Applied Biosystems Inc., Foster City, CA, USA). Total RNA from cells was isolated and stored at −80 °C. The quality of isolated RNA was estimated by the ratio A260/A280 and was in the range of 1.9–2.1. RNA integrity was evaluated by agarose gel electrophoresis according to MIQE guidelines using the “bleach gel” method. RNA concentrations were determined from the A260. One microgram of total RNA was reverse transcribed using Applied Biosystems High-Capacity cDNA Archive Kit.\nTo assess relative gene expression in neurons, quantitative real-time RT-PCR analysis was performed with an Applied Biosystems Prism 7500 Fast Sequence Detection System using TaqMan® universal PCR master mix according to the manufacturer’s specifications. […] Levels of RNA expression were determined using the 7500 Fast System SDS software version 1.3.1 (Applied Biosystems) according to the 2^−ΔΔCt method. […] The results from three independent repeat assays, performed in different plates each using different cDNA’s from the cultures analyzed, were averaged to produce a single mean quantity value for each mRNA."}, "mGluR1": {"test_system": "mGluR1", "assay": "Extracellular immunostaining of mGluR1 in non-permeabilized neurons", "type": "cell-based, rat", "details": "25 µM, 24 h, whole-cell immunostaining", "experimental": "(§1) The quantitative analysis of the levels of Group I mGluR and mGluR2,3 at the plasma membrane was performed with extracellular targeted polyclonal antibodies (mGluR1, mGluR5 and mGluR2,3, Alomone Labs, Jerusalem, Israel), as previously described with minor modifications. Briefly, after 2 weeks in culture, the culture medium was removed and cells washed with Locke Buffer (LB, pH 7.4). Cells were then fixed with 4% paraformaldehyde for 10 min at room temperature and washed with three 10-min intervals with LB.\n(§2) Nonspecific staining was suppressed by blocking with 3% normal goat serum in LB for 60 min. […]\n(§3) To evaluate the degree of fluorescence intensity in cortical neurons, fluorescence was measured to estimate the protein expression in the different experimental conditions analyzed. Images (448.6 µm × 335.08 µm) obtained with a digital camera (Leica DFC350FX R2), attached to a Leica DMI6000B (Leica Microsystems, Wetzlar, Germany) fluorescent microscope, were used for quantification (20x HCX PL FLUOTAR 0.4 dry objective). […] Fluorescence intensity was estimated by averaging mean grey values. […] Data were normalized to the total number of cells in the analyzed fields. The mean fluorescence background, calculated in the unstained regions between neurons, was subtracted from the fluorescence intensity of each data point. […]"}, "mGluR2,3": {"test_system": "mGluR2,3", "assay": "Extracellular immunostaining of mGluR2,3 in non-permeabilized neurons", "type": "cell-based, rat", "details": "25 µM, 24 h", "experimental": "as §1, §2, §3"}},
  "note": "Where no end group is shown, it is not given here.",
  "data": [
    {"sequence": "GSNKGAIIGLM [Aβ25-35]", "values": [
      {"measurement": "decrease in cell viability", "setting": "rat cortical neurons; 25 µM, 24 h", "result": "~40", "unit": "%"},
      {"measurement": "cell viability", "setting": "rat cortical neurons; 25 µM, 48 h, MTT", "result": "decrease in cell viability"},
      {"measurement": "decrease in cell viability", "setting": "rat cortical neurons; 50 µM, 24 h", "result": "~40", "unit": "%"},
      {"measurement": "cell viability, concentration dependence", "setting": "rat cortical neurons; 1, 10, 25 and 50 µM, 24 h, MTT", "result": "concentration-dependent decrease in cell viability"},
      {"measurement": "caspase 3 gene expression", "setting": "[1]; 24 h", "result": "significant increase"},
      {"measurement": "caspase 3 gene expression", "setting": "[1]; 48 h", "result": "significant increase"},
      {"measurement": "mGluR1 density at the membrane level, increase over control value", "setting": "mGluR1", "result": "more than 7 fold"},
      {"measurement": "mGluR2,3 density at the membrane surface of cell bodies", "setting": "mGluR2,3", "result": "decrease"}
    ]}
  ]
}
